Source: US10494332B2, “Protein tyrosine phosphatases or SHP2 inhibitors and uses thereof” (Indiana University Research and Technology Corporation, priority 2015, dated 2019)

The molecules below were run against T1, PTP1B (Homo sapiens, UniProt P18031) (assay: PTP inhibition assay (pNPP)). Details: pNPP at Km, pH 7.0, 25° C.
T1 sequence (P18031 1-435): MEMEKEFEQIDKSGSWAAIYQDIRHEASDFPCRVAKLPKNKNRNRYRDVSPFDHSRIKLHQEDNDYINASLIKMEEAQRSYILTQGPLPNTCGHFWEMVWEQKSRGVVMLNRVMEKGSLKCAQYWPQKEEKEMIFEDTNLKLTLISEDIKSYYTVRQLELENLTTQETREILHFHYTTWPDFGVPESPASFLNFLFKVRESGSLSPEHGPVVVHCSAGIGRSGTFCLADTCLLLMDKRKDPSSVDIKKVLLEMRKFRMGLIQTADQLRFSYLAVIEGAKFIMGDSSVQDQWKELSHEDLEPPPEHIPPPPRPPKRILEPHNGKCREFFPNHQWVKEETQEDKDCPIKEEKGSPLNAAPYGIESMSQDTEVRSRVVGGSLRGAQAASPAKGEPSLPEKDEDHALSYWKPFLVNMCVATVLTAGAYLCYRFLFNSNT
Type: biochemical
`CCCCc1ccc(NC(=O)C(=O)Nc2ccccc2NC(=O)C(c2ccccc2)S(=O)(=O)O)cc1` (stereo not drawn) [Compound L319-21-M06] was tested, and the IC50 was over 50 µM.
`O=C(Nc1cccc(OCc2ccccc2)c1)C(=O)Nc1ccccc1NC(=O)C(c1ccccc1)S(=O)(=O)O` (stereo not drawn) [Compound L319-21-M52] gave an IC50 of over 50 µM.
`O=C(Nc1ccc(OCc2ccccc2)c(Cl)c1)C(c1ccccc1)S(=O)(=O)O` (stereo not drawn) [Compound L319M50] gave an IC50 of over 200 µM.
With `O=C(Nc1ccc(-c2ccccc2)cc1)C(c1ccccc1)S(=O)(=O)O` (stereo not drawn) [Compound L319N08] the IC50 was over 200 µM.

The molecules below were run against FAP1 (Homo sapiens, UniProt Q12923) (assay: PTP inhibition assay (pNPP)). Details: IC50 FAP1.
Sequence of FAP1 (Q12923 whole entry): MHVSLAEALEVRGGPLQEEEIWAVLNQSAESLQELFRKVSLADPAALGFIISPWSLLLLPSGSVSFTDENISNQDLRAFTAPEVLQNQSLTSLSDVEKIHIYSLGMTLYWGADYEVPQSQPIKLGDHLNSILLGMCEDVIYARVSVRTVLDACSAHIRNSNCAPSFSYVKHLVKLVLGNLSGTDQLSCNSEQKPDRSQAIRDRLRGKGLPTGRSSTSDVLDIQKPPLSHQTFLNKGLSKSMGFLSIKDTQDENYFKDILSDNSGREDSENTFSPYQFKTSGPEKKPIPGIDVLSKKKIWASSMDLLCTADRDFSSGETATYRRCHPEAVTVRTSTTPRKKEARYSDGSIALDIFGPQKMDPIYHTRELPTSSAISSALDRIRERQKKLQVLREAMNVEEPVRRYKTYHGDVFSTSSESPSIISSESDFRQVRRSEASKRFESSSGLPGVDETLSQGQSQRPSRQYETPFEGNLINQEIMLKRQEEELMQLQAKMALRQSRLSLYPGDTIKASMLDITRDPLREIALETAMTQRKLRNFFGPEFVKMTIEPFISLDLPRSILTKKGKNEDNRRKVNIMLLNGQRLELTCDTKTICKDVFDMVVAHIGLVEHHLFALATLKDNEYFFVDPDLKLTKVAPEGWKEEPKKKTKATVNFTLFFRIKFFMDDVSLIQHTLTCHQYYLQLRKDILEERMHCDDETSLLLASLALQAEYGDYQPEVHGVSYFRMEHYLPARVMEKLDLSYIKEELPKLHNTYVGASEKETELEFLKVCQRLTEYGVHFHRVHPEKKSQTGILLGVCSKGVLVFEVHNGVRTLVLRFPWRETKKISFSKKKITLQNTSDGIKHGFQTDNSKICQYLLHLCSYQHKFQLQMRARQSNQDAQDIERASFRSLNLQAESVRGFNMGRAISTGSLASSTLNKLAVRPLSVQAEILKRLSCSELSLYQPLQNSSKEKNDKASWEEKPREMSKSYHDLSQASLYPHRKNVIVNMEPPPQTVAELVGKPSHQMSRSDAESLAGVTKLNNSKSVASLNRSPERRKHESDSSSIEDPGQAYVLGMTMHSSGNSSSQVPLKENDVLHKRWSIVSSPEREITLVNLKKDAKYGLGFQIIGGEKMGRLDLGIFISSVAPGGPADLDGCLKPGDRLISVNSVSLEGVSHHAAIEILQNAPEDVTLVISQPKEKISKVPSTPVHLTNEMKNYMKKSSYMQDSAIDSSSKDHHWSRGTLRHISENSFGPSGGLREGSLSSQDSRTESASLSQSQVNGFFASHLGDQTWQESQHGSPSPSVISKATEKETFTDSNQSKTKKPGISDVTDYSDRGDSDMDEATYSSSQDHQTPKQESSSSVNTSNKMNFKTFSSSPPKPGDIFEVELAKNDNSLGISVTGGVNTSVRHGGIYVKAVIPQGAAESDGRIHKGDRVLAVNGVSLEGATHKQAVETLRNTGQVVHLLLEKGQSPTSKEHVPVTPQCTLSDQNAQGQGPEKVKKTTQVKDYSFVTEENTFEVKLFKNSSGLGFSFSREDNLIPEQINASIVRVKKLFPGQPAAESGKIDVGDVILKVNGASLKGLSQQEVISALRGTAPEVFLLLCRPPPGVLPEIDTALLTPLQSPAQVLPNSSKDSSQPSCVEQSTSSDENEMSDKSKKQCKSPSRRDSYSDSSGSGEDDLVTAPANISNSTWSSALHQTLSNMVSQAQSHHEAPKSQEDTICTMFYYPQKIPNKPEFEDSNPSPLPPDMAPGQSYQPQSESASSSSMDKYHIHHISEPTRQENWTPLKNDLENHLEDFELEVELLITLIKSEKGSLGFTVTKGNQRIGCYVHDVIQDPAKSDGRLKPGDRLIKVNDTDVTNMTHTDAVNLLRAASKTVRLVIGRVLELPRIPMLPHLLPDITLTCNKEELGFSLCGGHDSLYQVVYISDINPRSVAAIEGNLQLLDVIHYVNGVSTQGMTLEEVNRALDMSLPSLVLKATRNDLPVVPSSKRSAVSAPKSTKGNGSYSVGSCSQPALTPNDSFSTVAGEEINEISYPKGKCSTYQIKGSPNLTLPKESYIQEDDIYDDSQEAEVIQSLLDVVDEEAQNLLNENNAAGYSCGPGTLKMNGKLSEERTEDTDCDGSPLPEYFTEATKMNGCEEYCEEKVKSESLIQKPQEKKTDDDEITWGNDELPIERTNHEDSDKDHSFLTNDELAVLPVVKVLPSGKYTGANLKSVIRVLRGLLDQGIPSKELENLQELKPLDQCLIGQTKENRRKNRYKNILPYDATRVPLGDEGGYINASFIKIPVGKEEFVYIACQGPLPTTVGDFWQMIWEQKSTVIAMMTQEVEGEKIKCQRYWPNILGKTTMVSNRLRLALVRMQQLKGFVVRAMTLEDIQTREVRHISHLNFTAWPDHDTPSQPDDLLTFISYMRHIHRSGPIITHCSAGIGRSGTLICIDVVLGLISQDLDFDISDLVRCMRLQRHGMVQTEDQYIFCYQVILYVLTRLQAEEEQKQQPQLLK
Type: biochemical
For `Cc1c(Br)cc(NC(=O)C(c2ccccc2)S(=O)(=O)O)cc1Br` (stereo not drawn) [Compound L319M34], the IC50 was over 100 µM.
`O=C(Nc1ccc(-c2ccccc2)cc1)C(c1ccccc1)S(=O)(=O)O` (stereo not drawn) [Compound L319N08] was tested, and the IC50 was 71 µM.

Same assay, conditions: pNPP at Km, pH 7.0, 25° C.; read-out: IC50 FAP1
`CCCCc1ccc(NC(=O)C(=O)Nc2ccccc2NC(=O)C(c2ccccc2)S(=O)(=O)O)cc1` (stereo not drawn) [Compound L319-21-M06] showed an IC50 of over 50 µM.
For `O=C(Nc1cccc(OCc2ccccc2)c1)C(=O)Nc1ccccc1NC(=O)C(c1ccccc1)S(=O)(=O)O` (stereo not drawn) [Compound L319-21-M52], the IC50 was over 50 µM.
`O=C(Nc1ccc(OCc2ccccc2)c(Cl)c1)C(c1ccccc1)S(=O)(=O)O` (stereo not drawn) [Compound L319M50] showed an IC50 of 73 µM.

The molecules below were run against VHR (Homo sapiens, UniProt P51452) (assay: PTP inhibition assay (pNPP)). Details: pNPP at Km, pH 7.0, 25° C.
Sequence of VHR (P51452 whole entry): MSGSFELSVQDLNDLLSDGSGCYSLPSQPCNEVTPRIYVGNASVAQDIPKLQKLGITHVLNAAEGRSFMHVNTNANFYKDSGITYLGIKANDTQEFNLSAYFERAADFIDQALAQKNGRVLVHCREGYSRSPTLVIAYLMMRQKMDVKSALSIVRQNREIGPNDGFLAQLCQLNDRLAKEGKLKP
Type: biochemical
In the case of `CCCCc1ccc(NC(=O)C(=O)Nc2ccccc2NC(=O)C(c2ccccc2)S(=O)(=O)O)cc1` (stereo not drawn) [Compound L319-21-M06], the IC50 is reported as over 50 µM.
`O=C(Nc1cccc(OCc2ccccc2)c1)C(=O)Nc1ccccc1NC(=O)C(c1ccccc1)S(=O)(=O)O` (stereo not drawn) [Compound L319-21-M52] showed an IC50 of over 50 µM.
Molecule `O=C(Nc1ccc(OCc2ccccc2)c(Cl)c1)C(c1ccccc1)S(=O)(=O)O` (stereo not drawn) [Compound L319M50] has an IC50 of over 200 µM.
Work on `O=C(Nc1ccc(-c2ccccc2)cc1)C(c1ccccc1)S(=O)(=O)O` (stereo not drawn) [Compound L319N08] yielded an IC50 of over 200 µM.

What follows are molecules tested against mPTPA (Mycobacterium tuberculosis, UniProt P9WIA1) (assay: biochemical). Details: IC50 mPTPA.
Sequence of mPTPA (P9WIA1 whole entry): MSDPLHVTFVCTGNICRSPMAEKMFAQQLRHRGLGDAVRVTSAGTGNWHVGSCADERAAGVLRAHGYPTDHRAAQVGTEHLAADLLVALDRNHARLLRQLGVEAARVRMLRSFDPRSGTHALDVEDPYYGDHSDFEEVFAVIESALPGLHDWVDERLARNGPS
`Cc1c(Br)cc(NC(=O)C(c2ccccc2)S(=O)(=O)O)cc1Br` (stereo not drawn) [Compound L319M34] gave an IC50 of 0.196 µM.

These molecules were tested against T2, PEST (Homo sapiens, UniProt Q05209) (assay: PTP inhibition assay (pNPP)). Details: IC50 PEST.
T2 sequence (Q05209 1-780): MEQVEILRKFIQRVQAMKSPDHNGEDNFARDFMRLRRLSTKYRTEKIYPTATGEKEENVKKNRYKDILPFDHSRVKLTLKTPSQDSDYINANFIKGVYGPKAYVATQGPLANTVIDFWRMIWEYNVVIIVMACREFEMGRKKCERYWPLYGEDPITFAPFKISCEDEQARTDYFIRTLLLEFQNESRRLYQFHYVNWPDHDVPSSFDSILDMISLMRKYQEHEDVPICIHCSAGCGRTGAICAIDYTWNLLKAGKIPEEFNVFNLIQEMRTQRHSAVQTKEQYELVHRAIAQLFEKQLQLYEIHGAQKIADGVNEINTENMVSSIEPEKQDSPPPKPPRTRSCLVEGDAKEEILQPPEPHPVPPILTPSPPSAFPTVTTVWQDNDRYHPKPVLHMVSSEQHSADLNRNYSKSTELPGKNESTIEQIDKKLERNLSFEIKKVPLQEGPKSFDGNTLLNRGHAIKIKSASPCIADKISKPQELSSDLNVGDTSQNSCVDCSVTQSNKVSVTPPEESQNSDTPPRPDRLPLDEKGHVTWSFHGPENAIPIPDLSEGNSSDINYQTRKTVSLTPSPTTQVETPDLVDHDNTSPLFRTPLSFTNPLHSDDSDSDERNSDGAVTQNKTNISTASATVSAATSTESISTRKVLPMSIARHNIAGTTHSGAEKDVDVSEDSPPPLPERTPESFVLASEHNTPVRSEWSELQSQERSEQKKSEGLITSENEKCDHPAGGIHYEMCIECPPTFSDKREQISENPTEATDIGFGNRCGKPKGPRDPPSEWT
Type: biochemical
Work on `Cc1c(Br)cc(NC(=O)C(c2ccccc2)S(=O)(=O)O)cc1Br` (stereo not drawn) [Compound L319M34] yielded an IC50 of 42.3 µM.
In the case of `O=C(Nc1ccc(-c2ccccc2)cc1)C(c1ccccc1)S(=O)(=O)O` (stereo not drawn) [Compound L319N08], the IC50 is reported as 59.7 µM.

Same assay, conditions: pH 7; read-out: IC50 PEST
Molecule `Cc1c(Br)cc(NC(=O)C(c2ccccc2)S(=O)(=O)O)cc1Br` (stereo not drawn) [Compound L319M34] has an IC50 of 72.3 µM.

Same assay, conditions: pNPP at Km, pH 7.0, 25° C.; read-out: IC50 PEST
`CCCCc1ccc(NC(=O)C(=O)Nc2ccccc2NC(=O)C(c2ccccc2)S(=O)(=O)O)cc1` (stereo not drawn) [Compound L319-21-M06] gave an IC50 of over 50 µM.
In the case of `O=C(Nc1cccc(OCc2ccccc2)c1)C(=O)Nc1ccccc1NC(=O)C(c1ccccc1)S(=O)(=O)O` (stereo not drawn) [Compound L319-21-M52], the IC50 is reported as over 50 µM.
Work on `O=C(Nc1ccc(OCc2ccccc2)c(Cl)c1)C(c1ccccc1)S(=O)(=O)O` (stereo not drawn) [Compound L319M50] yielded an IC50 of 69.9 µM.

The molecules below were run against T3, TcPTP (Homo sapiens, UniProt P17706) (assay: PTP inhibition assay (pNPP)). Details: IC50 TcPTP.
T3 sequence (P17706 1-415): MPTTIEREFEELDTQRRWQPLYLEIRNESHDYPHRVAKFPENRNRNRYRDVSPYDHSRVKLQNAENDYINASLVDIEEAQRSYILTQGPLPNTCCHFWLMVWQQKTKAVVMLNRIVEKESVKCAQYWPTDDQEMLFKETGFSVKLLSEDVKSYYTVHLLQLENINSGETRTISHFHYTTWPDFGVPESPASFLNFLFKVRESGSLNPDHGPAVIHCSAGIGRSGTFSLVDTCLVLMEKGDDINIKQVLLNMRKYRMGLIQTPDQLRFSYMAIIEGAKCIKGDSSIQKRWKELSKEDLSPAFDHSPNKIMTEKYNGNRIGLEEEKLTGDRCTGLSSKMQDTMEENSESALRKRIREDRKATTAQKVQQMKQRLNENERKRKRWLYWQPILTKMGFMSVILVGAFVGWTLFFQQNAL
Type: biochemical
`Cc1c(Br)cc(NC(=O)C(c2ccccc2)S(=O)(=O)O)cc1Br` (stereo not drawn) [Compound L319M34] showed an IC50 of over 100 µM.
For `O=C(Nc1ccc(-c2ccccc2)cc1)C(c1ccccc1)S(=O)(=O)O` (stereo not drawn) [Compound L319N08], the IC50 was over 200 µM.

Same assay, conditions: pNPP at Km, pH 7.0, 25° C.; read-out: IC50 TcPTP
With `CCCCc1ccc(NC(=O)C(=O)Nc2ccccc2NC(=O)C(c2ccccc2)S(=O)(=O)O)cc1` (stereo not drawn) [Compound L319-21-M06] the IC50 was over 50 µM.
With `O=C(Nc1cccc(OCc2ccccc2)c1)C(=O)Nc1ccccc1NC(=O)C(c1ccccc1)S(=O)(=O)O` (stereo not drawn) [Compound L319-21-M52] the IC50 was over 50 µM.
In the case of `O=C(Nc1ccc(OCc2ccccc2)c(Cl)c1)C(c1ccccc1)S(=O)(=O)O` (stereo not drawn) [Compound L319M50], the IC50 is reported as over 100 µM.

The molecules below were run against TbPTP1 (Trypanosoma brucei brucei, UniProt Q38AT7) (assay: PTP inhibition assay (pNPP)). Details: IC50 TbPTP1, pNPP at Km, pH 7.0, 25° C.
Sequence of TbPTP1 (Q38AT7 entry or part of it): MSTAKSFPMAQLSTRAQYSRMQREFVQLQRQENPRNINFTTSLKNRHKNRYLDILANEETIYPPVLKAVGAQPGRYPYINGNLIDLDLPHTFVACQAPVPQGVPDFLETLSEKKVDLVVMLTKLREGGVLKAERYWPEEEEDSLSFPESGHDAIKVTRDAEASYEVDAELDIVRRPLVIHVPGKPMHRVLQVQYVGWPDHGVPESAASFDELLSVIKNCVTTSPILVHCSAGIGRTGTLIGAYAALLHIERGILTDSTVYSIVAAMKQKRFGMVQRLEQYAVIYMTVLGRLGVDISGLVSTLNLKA
Type: biochemical
Molecule `Cc1c(Br)cc(NC(=O)C(c2ccccc2)S(=O)(=O)O)cc1Br` (stereo not drawn) [Compound L319M34] has an IC50 of over 200 µM.

Same assay, conditions: pNPP at Km, pH 7.0, 25° C.; read-out: IC50 TbPTP1
In the case of `CCCCc1ccc(NC(=O)C(=O)Nc2ccccc2NC(=O)C(c2ccccc2)S(=O)(=O)O)cc1` (stereo not drawn) [Compound L319-21-M06], the IC50 is reported as over 50 µM.
Work on `O=C(Nc1cccc(OCc2ccccc2)c1)C(=O)Nc1ccccc1NC(=O)C(c1ccccc1)S(=O)(=O)O` (stereo not drawn) [Compound L319-21-M52] yielded an IC50 of over 50 µM.
`O=C(Nc1ccc(OCc2ccccc2)c(Cl)c1)C(c1ccccc1)S(=O)(=O)O` (stereo not drawn) [Compound L319M50] gave an IC50 of over 100 µM.
With `O=C(Nc1ccc(-c2ccccc2)cc1)C(c1ccccc1)S(=O)(=O)O` (stereo not drawn) [Compound L319N08] the IC50 was over 100 µM.
